Test results as given in ChEMBL document CHEMBL1921686, “Molecular design, synthesis and bioactivity of glycosyl hydrazine and hydrazone derivatives: notable effects of the sugar moiety” (2011).

How the values were obtained:
Format in all cases: functional
Conditions in all cases: read-out: GI
BGC-823 = experiment: Antitumor activity against human BGC823 cells assessed as growth inhibition at 10 uM by SRB method
Bel-7402 = experiment: Antitumor activity against human Bel7402 cells assessed as growth inhibition at 10 uM by SRB method
KB = experiment: Antitumor activity against human KB cells assessed as growth inhibition at 10 uM by SRB method
Phytophthora capsici = experiment: Antifungal activity against Phytophthora capsici assessed as growth inhibition at 500 ug/mL by potted plant test
Fusarium oxysporum = experiment: Antifungal activity against Fusarium oxysporum assessed as growth inhibition at 500 ug/mL by potted plant test
Corynespora cassiicola = experiment: Antifungal activity against Corynespora cassiicola assessed as growth inhibition at 500 ug/mL by potted plant test
Rhizoctonia solani = experiment: Antifungal activity against Rhizoctonia solani assessed as growth inhibition at 500 ug/mL by potted plant test

| Compound | inhibition of growth at 10 µM (BGC-823) [%] | inhibition of growth at 10 µM (Bel-7402) [%] | inhibition of growth at 10 µM (KB) [%] | inhibition of growth at 500 µg/mL (Phytophthora capsici) [%] | inhibition of growth at 500 µg/mL (Fusarium oxysporum) [%] | inhibition of growth at 500 µg/mL (Corynespora cassiicola) [%] | inhibition of growth at 500 µg/mL (Rhizoctonia solani) [%] |
| --- | --- | --- | --- | --- | --- | --- | --- |
| O=C(N/N=C/c1ccc(-c2ccc(F)cc2F)o1)c1ccccc1S[C@@H]1O[C@H](CO)[C@@H](O)[C@H](O)[C@H]1O | 18.4 | -0.67 | -0.3 | 88.5 | 45.2 | 53.7 | 45.5 |
| N#Cc1c(Cl)c(Cl)c(Cl)c(C#N)c1Cl [CHLOROTHALONIL] | – | – | – | – | – | 83.9 | – |
| COC(=O)NC(=S)Nc1ccccc1NC(=S)NC(=O)OC [THIOPHANATE METHYL] | – | – | – | – | 64.5 | – | – |
| O=C(N/N=C/c1ccc(-c2ccccc2Cl)o1)c1ccccc1S[C@@H]1O[C@H](CO)[C@@H](O)[C@H](O)[C@H]1O | 6.21 | 2.09 | 24.3 | 90 | 8.06 | 41.9 | 34.4 |
| O=C(N/N=C/c1ccc(-c2ccc(F)cc2F)o1)c1ccccc1S[C@@H]1O[C@H](CO)[C@@H](O[C@@H]2O[C@H](CO)[C@H](O)[C@H](O)[C@H]2O)[C@H](O)[C@H]1O | -2.72 | -10.6 | 39.4 | 30 | 74.2 | 45.6 | 10.7 |
| O=C(N/N=C/c1ccc(-c2ccccc2Cl)o1)c1ccccc1S[C@@H]1O[C@H](CO)[C@@H](O[C@@H]2O[C@H](CO)[C@H](O)[C@H](O)[C@H]2O)[C@H](O)[C@H]1O | 1.91 | 8.3 | -4.67 | 44.4 | 40.3 | 41.6 | 43.5 |
| COc1cccc2c1C(=O)c1c(O)c3c(c(O)c1C2=O)C[C@@](O)(C(=O)CO)C[C@@H]3O[C@H]1C[C@H](N)[C@H](O)[C@H](C)O1 [DOXORUBICIN] | 51.2 | 6.53 | 45.1 | – | – | – | – |
| O=C(N/N=C/c1ccc(-c2ccccc2Cl)o1)c1ccccc1O[C@@H]1O[C@H](CO)[C@@H](O)[C@H](O)[C@H]1O | 1.88 | -10.3 | 9.11 | 90 | 64.5 | 49.3 | 33.3 |
| O=C(N/N=C/c1ccc(-c2ccc(F)cc2F)o1)c1ccccc1O | 68.4 | 63.4 | 61.8 | 52.8 | 8 | 27.7 | 16.1 |
| O=C(N/N=C/c1ccc(-c2ccc(F)cc2F)o1)c1ccccc1S[C@@H]1O[C@H](CO)[C@H](O)[C@H](O)[C@H]1O | 16.1 | 27.2 | 10.7 | 88.4 | 64.5 | 39.4 | 24.9 |
| OCC1=C[C@H](N[C@H]2C[C@H](CO)[C@@H](O[C@@H]3O[C@H](CO)[C@@H](O)[C@H](O)[C@H]3O)[C@H](O)[C@H]2O)[C@H](O)[C@@H](O)[C@@H]1O [VALIDAMYCIN] | – | – | – | – | – | – | 81 |
| O=C(N/N=C/c1ccc(-c2ccc(F)cc2F)o1)c1ccccc1O[C@@H]1O[C@H](CO)[C@@H](O)[C@H](O)[C@H]1O | 6.66 | -5.7 | 18.2 | 85.5 | 0 | 50.8 | 45.3 |
| COc1ccccc1C(=O)N/N=C/c1ccc(-c2ccc(F)cc2F)o1 | 35.9 | 1.69 | 10.1 | 20.9 | 9 | 38.5 | 2 |
| CC12CC1(C)C(=O)N(c1cc(Cl)cc(Cl)c1)C2=O (stereo not given) [PROCYMIDONE] | – | – | – | 93.2 | – | – | – |
